Source: US20220267258A1, “ROBENIDINE ANALOGS AS POTENT ANTIMALARIALS AGAINST DRUG-RESISTANT PLASMODIUM FALCIPARUM” (OREGON HEALTH & SCIENCE UNIVERSITY, priority 2021, published 2022)
Structures can show the parent of a compound that is named as a salt. Where two headings read alike, the source gives them in different places.

What was measured:
[1] = test system: human hepatoma derived HepG2 cells; experiment: HepG2 cytotoxicity assay (resazurin); assay type: cell-based; settings: for IC50: HepG2, 24 hr drug, 24 hr recovery
Method: (§1) In this assay, HepG2 cells were incubated with test compounds for 24 hours, followed by a 24-hour recovery period and subsequent staining to evaluate for cytotoxic effects with resazurin. The ratio of the resulting HepG2 IC50 value to the P. falciparum D6 IC50 value can be considered an ‘in vitro therapeutic index,’ or IVTI.
(§2) Compounds were prepared as 10 mM stock solutions in DMSO. […] HepG2 cells were added to each well of flat bottom 96-well tissue culture plates at an initial density of 2×10^4 cells per well, and an initial volume of 160 μL complete medium per well. After an overnight incubation at 37° C. to adhere the cells to the culture plates, 40 μL drug solutions in complete medium were applied to each well at a final concentration range of 0 to 200 μM across each plate. Drugs were tested in triplicate or quadruplicate. The cells were incubated for 24 hours at 37° C. and 5% CO2 with the drug solutions, which were then aspirated and replaced with 200 μL per well of complete medium for an additional 24 hour incubation under the same conditions. To each well was added 20 μL of resazurin (Alamar Blue) in PBS buffer to a final concentration of 10 μM, and the plates were incubated for 3 hours. Fluorescence was measured at 560 nm excitation and 590 nm emission bands using a Spectramax iD3 plate reader. Fluorescence readings were normalized with respect to the untreated control wells and plotted against the logarithm of drug concentration.

P. falciparum A6 = experiment: SYBR Green growth inhibition assay, P. falciparum A6; assay type: cell-based, Plasmodium falciparum; settings: read-out: IC50 A6
Method: (§3) In addition to the drug-sensitive P. falciparum D6 strain, the aminoguanidines were assessed against three drug-resistant strains (Tables 1-3).
(§4) The following parasite strains were used in this study and obtained through BEI Resources, NIAID, NIH. […] The culture medium used was RPMI-1640, supplemented with 25 mM HEPES buffer, 25 mg/L gentamicin sulfate, 45 mg/L hypoxanthine, 10 mM glucose, 2 mM glutamine, and 0.5% Albumax II (complete medium).^43 Cultures were maintained in a standard low oxygen atmosphere (5% O2, 5% CO2, 90% N2) in an environmental chamber and incubated at 37° C. Cultures were sub-passaged every 3-4 days into a fresh culture flask containing complete media and erythrocytes.
(§5) The aminoguanidine series was assessed for in vitro antiplasmodial activity using the fluorescence-based SYBR Green assay described previously by Smilkstein and co-workers.^38 Compounds were evaluated in quadruplicate in flat-bottomed Costar clear 96-well plates (Model #3585). A two-fold serial dilution of each compound was performed across the columns of the test plates starting with 20 μM and ending with a final untreated column to serve as control wells. Asynchronous parasite infected erythrocytes in growth media were added to each well for a total volume of 100 μL, final hematocrit of 2%, and initial parasitemia of 0.2%. The commercial malaria drugs atovaquone and chloroquine were used as control drugs. Test plates were incubated for 72 hr at 37° C. in an environmental chamber with a controlled low oxygen atmosphere (5% O2, 5% CO2, 90% N2). After the incubation period, 100 μL SYBR Green I dye-detergent solution was added to each well, and the plates were incubated at ambient temperature and atmosphere in the dark for at least one hour. Fluorescence was read at 497 nm excitation and 520 nm emission bands using a Spectramax iD3 plate reader. Fluorescence readings were normalized with respect to the untreated control wells representing normal parasite growth and plotted against the logarithm of drug concentration.

P. falciparum Tm90-C2B = experiment: SYBR Green growth inhibition assay, P. falciparum Tm90-C2B; assay type: cell-based, Plasmodium falciparum; settings: read-out: IC50 Tm90-C2B
Method: as §3, §4, §5

P. falciparum Dd2 = experiment: SYBR Green growth inhibition assay, P. falciparum Dd2; assay type: cell-based, Plasmodium falciparum; settings: read-out: IC50 Dd2
Method: as §3, §4, §5

P. falciparum strain D6 = experiment: SYBR Green growth inhibition assay, P. falciparum D6; assay type: cell-based, Plasmodium falciparum; settings: read-out: IC50 D6
Method: (§6) The in vitro activity of each compound in the aminoguanidine library was assessed against asynchronous cultures of Plasmodium falciparum parasites replicating within human erythrocytes (Tables 1-3). As the chemical development of robenidine was not discussed in its original publication in 1970^4 and limited structural information is available regarding its mechanism of action,^10 profiling was guided primarily by in vitro potency against the P. falciparum D6 strain cultured in human erythrocytes as described above.
as §4
as §5, with “The commercial malaria drugs atovaquone and chloroquine were used as control drugs.” left out

[2] = HepG2 cytotoxicity assay (resazurin); assay type: cell-based, human; settings: human, HepG2 cells; HepG2, 24 hr drug, 24 hr recovery
Method: as §1, §2

P. falciparum strains = assay type: cell-based, Plasmodium falciparum; settings: for activity against all tested P. falciparum strains: D6, Dd2, Tm90-C2B, A6
Method: as §6
All aminoguanidines synthesized were also evaluated against three multi-drug resistant P. falciparum strains (Dd2, Tm90-C2B, and A6) and for mammalian cell cytotoxicity.
as §3
as §5, with “The commercial malaria drugs atovaquone and chloroquine were used as control drugs.” left out

[3] = test system: P. falciparum Dd2 infected erythrocytes; experiment: SYBR Green assay adapted to 48, 72 or 96 hr incubation; assay type: cell-based; settings: Plasmodium falciparum, DD2, Erythrocyte
Method: Many drugs have activity dependent on their exposure time in addition to concentration, and antimalarial potency is frequently stage-specific. To determine whether the aminoguanidines acted by a time-dependent mechanism against malaria parasites, the SYBR Green activity assay was adapted to include additional incubation intervals. Two potent aminoguanidines, 16 and 21, were incubated with P. falciparum Dd2 infected erythrocytes for 48, 72, or 96 hours (FIG. 3). […] A shorter incubation time allows for less parasite growth for all drug conditions, producing data with proportionally greater variability or ‘noise.’ Conversely, longer incubation times reduce noise in the resulting data.
Aminoguanidine activity appears to be driven primarily by drug concentration rather than by lengthening drug incubation time.
as §5

Plasmodium yoelii = experiment: modified 4-day Peters test, murine malaria; assay type: in vivo, mice; settings: for P. yoelii ED50 / P. yoelii ED90: oral gavage days 1-4, parasitemia day 5; for P. yoelii NRD (non-recrudescence dose, cure dose): oral, doses up to 25 mg/kg/day, no parasites at day 30; for cure in this model: 4-day oral dosing, 0% parasitemia at day 30
Method: In this modified 4-day Peters test,^41 mice were inoculated with parasites from a donor mouse (day 0), and then dosed orally with drugs on each of the subsequent four days (days 1-4). On day 5 of the experiment, the parasitemia for each mouse was determined microscopically by examining methanol-fixed and Giemsa-stained blood smears. The ED50 represents the interpolated dose of a compound at which parasitemia was suppressed to one half that of untreated controls. Similarly, the ED90 represents the dose at which parasitemia is suppressed ten-fold. Mice were considered cured of their infection if no parasites were detected in the blood 30 days from the first drug administration, and the non-recrudescence dose (NRD) represents the lowest dose to achieve a cure.
The in vivo ED50 and ED90 of selected aminoguanidines was measured using a modified 4-day Peters test. Female CF1 mice from Charles River Laboratories were inoculated intravenously with approximately 2.5-5.0×10^4 parasitized erythrocytes (murine malaria P. yoelii, Kenya strain MR4 MRA-428) from a donor mouse (experiment day zero). On the following four days (experiment days 1-4), solutions of the test compounds in PEG-300 (or PEG-300 only for control mice) were administered by oral gavage once daily. […] Parasitemia of each mouse was determined by microscopic examination of Giemsa stained blood smears on day 5. ED50 and ED90 values were assessed by generating dose-response curves relative to untreated controls using Graphpad Prism (v. 8). Mice were considered cured of malarial infection if they maintained 0% parasitemia at experiment day 30. The procedures involved, together with all matters relating to the care, handling, and housing of the animals used in this study, were approved by the Portland VA Medical Center Institutional Animal Care and Use Committee.

[4] = mutant line resistant to respiratory antagonists, 72 hr
[5] = multi-drug resistant clinical isolate, also atovaquone resistant, 72 hr
[6] = multi-drug resistant strain, 72 hr
[7] = pan-sensitive strain, 72 hr, asynchronous cultures in human erythrocytes
[8] = Plasmodium falciparum, TM90, 72 h
[9] = Plasmodium falciparum, DD2, 72 h
[10] = Plasmodium falciparum, D6, Erythrocyte, 72 h

Compound	IC50 [1]	IC50 at 24 h [2]	IC50 (P. falciparum A6; Plasmodium falciparum, 72 h)	IC50 (P. falciparum Tm90-C2B; [8])	IC50 (P. falciparum Dd2; [9])	IC50 (P. falciparum strain D6; [10])	further results
N=C(NN=Cc1ccc(S(N)(=O)=O)cc1)NN=Cc1ccc(S(N)(=O)=O)cc1 [Compound 31]	> 200 µM	–	–	–	–	–	IC50 (P. falciparum A6; [4]): > 5000 nM; IC50 (P. falciparum Tm90-C2B; [5]): > 5000 nM; IC50 (P. falciparum Dd2; [6]): > 5000 nM; IC50 (P. falciparum strain D6; [7]): > 5000 nM
N=C(N/N=C/c1ccc(-n2cnnn2)cc1)N/N=C/c1ccc(-n2cnnn2)cc1 [Compound 35]	–	> 200 µM	> 5000 nM	> 5000 nM	> 5000 nM	838 nM	activity against all tested P. falciparum strains (P. falciparum strains): inactive
N=C(NN=Cc1ccc2c(c1)OC(F)(F)O2)NN=Cc1ccc2c(c1)OC(F)(F)O2 [Compound 36, 2,2′-Bis{[4-(2,2-difluoro-2,3-dioxazolo)]phenyl}methylene]carbonimidic Dihydrazide Hydrochloride]	> 200 µM	–	–	–	–	–	IC50 (P. falciparum A6; [4]): 235 nM; IC50 (P. falciparum Tm90-C2B; [5]): 905 nM; IC50 (P. falciparum Dd2; [6]): 800 nM; IC50 (P. falciparum strain D6; [7]): 250 nM
O=C1C(O)=C([C@H]2CC[C@H](c3ccc(Cl)cc3)CC2)C(=O)c2ccccc21 [Atovaquone, reference compound]	72 µM	–	> 5000 nM	> 5000 nM	< 1 nM	–	IC50 (P. falciparum strain D6; Plasmodium falciparum, D6, Erythrocyte, pan-sensitive strain, 72 hr, asynchronous cultures in human erythrocytes): < 1 nM
N=C(NN=Cc1ccc([N+](=O)[O-])cc1)NN=Cc1ccc([N+](=O)[O-])cc1 [Compound 27]	> 200 µM	–	–	–	–	–	IC50 (P. falciparum A6; [4]): 85 nM; IC50 (P. falciparum Tm90-C2B; [5]): 247 nM; IC50 (P. falciparum Dd2; [6]): 198 nM; IC50 (P. falciparum strain D6; [7]): 96 nM
N#Cc1cccc(/C=N/NC(=N)N/N=C/c2cccc(C#N)c2)c1 [Compound 21]	–	7 µM	24 nM	31 nM	20 nM	7 nM	effect on Hep2G activity ([1]; concentrations as high as 200 μM): no measurable effect; IC50 ([3]; 48 h, read-out: IC50 Dd2 48 hr): 31 nM; IC50 ([3]; 72 h, read-out: IC50 Dd2 72 hr): 21 nM; IC50 ([3]; 96 h, read-out: IC50 Dd2 96 hr): 22 nM; P. yoelii ED50 (Plasmodium yoelii): 7.1 mg/kg/day; P. yoelii ED90 (Plasmodium yoelii): 9.4 mg/kg/day; P. yoelii NRD (non-recrudescence dose, cure dose) (Plasmodium yoelii): >25 mg/kg/day
N#Cc1cc(/C=N/NC(=N)N/N=C/c2ccc(F)c(C#N)c2)ccc1F [Compound 1]	–	8 µM	14 nM	16 nM	12 nM	4 nM	cure in this model (Plasmodium yoelii): not curative; P. yoelii ED90 (Plasmodium yoelii): 0.28 mg/kg/day; P. yoelii NRD (non-recrudescence dose, cure dose) (Plasmodium yoelii): >25 mg/kg/day; IC50 values against P. falciparum strains (P. falciparum strains; in words): single-digit nanomolar
N=C(N/N=C/c1ccc(OC(F)(F)F)cc1)N/N=C/c1ccc(OC(F)(F)F)cc1 [Compound 16]	–	11 µM	52 nM	114 nM	83 nM	39 nM	IC50 ([3]; 48 h, read-out: IC50 Dd2 48 hr): 410 nM; IC50 ([3]; 72 h, read-out: IC50 Dd2 72 hr): 195 nM; IC50 ([3]; 96 h, read-out: IC50 Dd2 96 hr): 192 nM; P. yoelii ED50 (Plasmodium yoelii): 1.2 mg/kg/day; P. yoelii ED90 (Plasmodium yoelii): 3.7 mg/kg/day; P. yoelii NRD (non-recrudescence dose, cure dose) (Plasmodium yoelii): 12.5 mg/kg/day
N=C(N/N=C/c1cccc(-n2cnnn2)c1)N/N=C/c1cccc(-n2cnnn2)c1 [Compound 34]	–	107 µM	4790 nM	> 5000 nM	> 5000 nM	1640 nM	activity against all tested P. falciparum strains (P. falciparum strains): inactive
N=C(N/N=C/c1ccccc1)N/N=C/c1ccccc1 [Compound 24]	–	> 200 µM	581 nM	> 5000 nM	4300 nM	705 nM	–
CCN(CC)CCCC(C)Nc1ccnc2cc(Cl)ccc12 (stereo not drawn) [Chloroquine, reference compound]	181 µM	–	16 nM	297 nM	70 nM	–	cure in this model (Plasmodium yoelii): not curative
N=C(N/N=C/c1ccccc1F)N/N=C/c1ccccc1F [Compound 2]	–	> 200 µM	1890 nM	> 5000 nM	4590 nM	2870 nM	–
Cc1ccc(/C=N/NC(=N)N/N=C/c2ccc(C)cc2)cc1 [Compound 10]	–	43 µM	> 5000 nM	2530 nM	2430 nM	905 nM	–
